According to the NIST ThermoML archive (doi:10.1021/je0604232):
Numbers after ± are expanded uncertainties. Blank lines part the entries; values can stand above or below the compound they belong to.

Test: molar heat capacity at constant pressure
Conditions: Liquid

- molar heat capacity at constant pressure (303.15 K, 101 kPa): 209 ± 2 J/K/mol
- molar heat capacity at constant pressure (308.15 K, 101 kPa): 213 ± 2 J/K/mol
- molar heat capacity at constant pressure (313.15 K, 101 kPa): 214 ± 2 J/K/mol
- molar heat capacity at constant pressure (318.15 K, 101 kPa): 215 ± 2 J/K/mol
- molar heat capacity at constant pressure (323.15 K, 101 kPa): 217 ± 2 J/K/mol
- molar heat capacity at constant pressure (328.15 K, 101 kPa): 218 ± 2 J/K/mol
- molar heat capacity at constant pressure (333.15 K, 101 kPa): 221 ± 2 J/K/mol
- molar heat capacity at constant pressure (338.15 K, 101 kPa): 223 ± 2 J/K/mol
- molar heat capacity at constant pressure (343.15 K, 101 kPa): 225 ± 2 J/K/mol
- molar heat capacity at constant pressure (348.15 K, 101 kPa): 228 ± 2 J/K/mol
- molar heat capacity at constant pressure (353.15 K, 101 kPa): 230 ± 2 J/K/mol
SMILES: CC(O)CN (configuration not stated) [1-amino-2-propanol]

- molar heat capacity at constant pressure (303.15 K, 101 kPa): 194 ± 2 J/K/mol
- molar heat capacity at constant pressure (308.15 K, 101 kPa): 199 ± 2 J/K/mol
- molar heat capacity at constant pressure (313.15 K, 101 kPa): 200 ± 2 J/K/mol
- molar heat capacity at constant pressure (318.15 K, 101 kPa): 202 ± 2 J/K/mol
- molar heat capacity at constant pressure (323.15 K, 101 kPa): 203 ± 2 J/K/mol
- molar heat capacity at constant pressure (328.15 K, 101 kPa): 205 ± 2 J/K/mol
- molar heat capacity at constant pressure (333.15 K, 101 kPa): 206 ± 2 J/K/mol
- molar heat capacity at constant pressure (338.15 K, 101 kPa): 207 ± 2 J/K/mol
- molar heat capacity at constant pressure (343.15 K, 101 kPa): 208 ± 2 J/K/mol
- molar heat capacity at constant pressure (348.15 K, 101 kPa): 210 ± 2 J/K/mol
- molar heat capacity at constant pressure (353.15 K, 101 kPa): 212 ± 2 J/K/mol
SMILES: CNCCO [2-(methylamino)ethanol]

- molar heat capacity at constant pressure (303.15 K, 101 kPa): 204 ± 2 J/K/mol
- molar heat capacity at constant pressure (308.15 K, 101 kPa): 207 ± 2 J/K/mol
- molar heat capacity at constant pressure (313.15 K, 101 kPa): 208 ± 2 J/K/mol
- molar heat capacity at constant pressure (318.15 K, 101 kPa): 208 ± 2 J/K/mol
- molar heat capacity at constant pressure (323.15 K, 101 kPa): 209 ± 2 J/K/mol
- molar heat capacity at constant pressure (328.15 K, 101 kPa): 210 ± 2 J/K/mol
- molar heat capacity at constant pressure (333.15 K, 101 kPa): 211 ± 2 J/K/mol
- molar heat capacity at constant pressure (338.15 K, 101 kPa): 213 ± 2 J/K/mol
- molar heat capacity at constant pressure (343.15 K, 101 kPa): 214 ± 2 J/K/mol
- molar heat capacity at constant pressure (348.15 K, 101 kPa): 216 ± 2 J/K/mol
- molar heat capacity at constant pressure (353.15 K, 101 kPa): 217 ± 2 J/K/mol
SMILES: NCCCO [3-amino-1-propanol]

- molar heat capacity at constant pressure (303.15 K, 101 kPa): 279 ± 2 J/K/mol
- molar heat capacity at constant pressure (308.15 K, 101 kPa): 284 ± 2 J/K/mol
- molar heat capacity at constant pressure (313.15 K, 101 kPa): 285 ± 2 J/K/mol
- molar heat capacity at constant pressure (318.15 K, 101 kPa): 286 ± 2 J/K/mol
- molar heat capacity at constant pressure (323.15 K, 101 kPa): 287 ± 2 J/K/mol
- molar heat capacity at constant pressure (328.15 K, 101 kPa): 289 ± 2 J/K/mol
- molar heat capacity at constant pressure (333.15 K, 101 kPa): 290 ± 2 J/K/mol
- molar heat capacity at constant pressure (338.15 K, 101 kPa): 292 ± 2 J/K/mol
- molar heat capacity at constant pressure (343.15 K, 101 kPa): 293 ± 2 J/K/mol
- molar heat capacity at constant pressure (348.15 K, 101 kPa): 295 ± 2 J/K/mol
- molar heat capacity at constant pressure (353.15 K, 101 kPa): 296 ± 2 J/K/mol
SMILES: NCCNCCO [N-(2-aminoethyl)ethanolamine]

Continued, compound first:

SMILES: CN(C)CCO [2-(N,N-dimethylamino)ethanol]
- molar heat capacity at constant pressure (303.15 K, 101 kPa): 213 ± 2 J/K/mol
- molar heat capacity at constant pressure (308.15 K, 101 kPa): 215 ± 2 J/K/mol
- molar heat capacity at constant pressure (313.15 K, 101 kPa): 217 ± 2 J/K/mol
- molar heat capacity at constant pressure (318.15 K, 101 kPa): 219 ± 2 J/K/mol
- molar heat capacity at constant pressure (323.15 K, 101 kPa): 221 ± 2 J/K/mol
- molar heat capacity at constant pressure (328.15 K, 101 kPa): 222 ± 2 J/K/mol
- molar heat capacity at constant pressure (333.15 K, 101 kPa): 223 ± 2 J/K/mol
- molar heat capacity at constant pressure (338.15 K, 101 kPa): 223 ± 2 J/K/mol
- molar heat capacity at constant pressure (343.15 K, 101 kPa): 223 ± 2 J/K/mol
- molar heat capacity at constant pressure (348.15 K, 101 kPa): 224 ± 2 J/K/mol
- molar heat capacity at constant pressure (353.15 K, 101 kPa): 226 ± 2 J/K/mol

SMILES: NCCO [2-aminoethan-1-ol]
- molar heat capacity at constant pressure (303.15 K, 101.33 kPa): 168 ± 1 J/K/mol
- molar heat capacity at constant pressure (308.15 K, 101.33 kPa): 169 ± 1 J/K/mol
- molar heat capacity at constant pressure (313.15 K, 101.33 kPa): 169 ± 1 J/K/mol
- molar heat capacity at constant pressure (318.15 K, 101.33 kPa): 171 ± 2 J/K/mol
- molar heat capacity at constant pressure (323.15 K, 101.33 kPa): 173 ± 2 J/K/mol
- molar heat capacity at constant pressure (328.15 K, 101.33 kPa): 174 ± 2 J/K/mol
- molar heat capacity at constant pressure (333.15 K, 101.33 kPa): 175 ± 2 J/K/mol
- molar heat capacity at constant pressure (338.15 K, 101.33 kPa): 178 ± 2 J/K/mol
- molar heat capacity at constant pressure (343.15 K, 101.33 kPa): 179 ± 2 J/K/mol
- molar heat capacity at constant pressure (348.15 K, 101.33 kPa): 180 ± 2 J/K/mol
- molar heat capacity at constant pressure (353.15 K, 101.33 kPa): 182 ± 2 J/K/mol

SMILES: CN(CCO)CCO [N-methyldiethanolamine]
- molar heat capacity at constant pressure (303.15 K, 101.33 kPa): 273 ± 2 J/K/mol
- molar heat capacity at constant pressure (308.15 K, 101.33 kPa): 276 ± 2 J/K/mol
- molar heat capacity at constant pressure (313.15 K, 101.33 kPa): 279 ± 2 J/K/mol
- molar heat capacity at constant pressure (318.15 K, 101.33 kPa): 282 ± 2 J/K/mol
- molar heat capacity at constant pressure (323.15 K, 101.33 kPa): 285 ± 2 J/K/mol
- molar heat capacity at constant pressure (328.15 K, 101.33 kPa): 288 ± 2 J/K/mol
- molar heat capacity at constant pressure (333.15 K, 101.33 kPa): 290 ± 2 J/K/mol
- molar heat capacity at constant pressure (338.15 K, 101.33 kPa): 294 ± 2 J/K/mol
- molar heat capacity at constant pressure (343.15 K, 101.33 kPa): 298 ± 2 J/K/mol
- molar heat capacity at constant pressure (348.15 K, 101.33 kPa): 301 ± 3 J/K/mol
- molar heat capacity at constant pressure (353.15 K, 101.33 kPa): 304 ± 3 J/K/mol
